ChEMBL document CHEMBL1152950, “Cytotoxic activity and inhibitory effect on nitric oxide production of triterpene saponins from the roots of Physospermum verticillatum (Waldst & Kit) (Apiaceae)” (Bioorg Med Chem, 2009)

Key:
RAW264.7 [1] = test: Antiinflammatory activity in LPS-stimulated mouse RAW264.7 cells assessed as inhibition of NO production after 24 hrs by Griess reagent method; format: functional, cell-based; conditions: for IC50: RAW264.7, 24 h
[2] = system: Radical scavenging activity; test: Antioxidant activity assessed as DPPH radical scavenging activity by spectrophotometry; format: functional
[3] = Cytotoxicity against human Huh-7D12 cells after 48 hrs by SRB assay; format: functional, cell-based; conditions: Huh-7D12, 48 h
Caco-2 = test: Cytotoxicity against human Caco-2 cells after 48 hrs by SRB assay; format: functional, cell-based; conditions: for IC50: Caco-2, 48 h
COR-L23 = test: Cytotoxicity against human COR-L23 cells after 48 hrs by SRB assay; format: functional, cell-based; conditions: for IC50: COR-L23, 48 h
A-375 = test: Cytotoxicity against human A375 cells after 48 hrs by SRB assay; format: functional, cell-based; conditions: for IC50: A-375, 48 h
ACHN = test: Cytotoxicity against human ACHN cells after 48 hrs by SRB assay; format: functional, cell-based
[4] = Cytotoxicity against human 142BR cells after 48 hrs by SRB assay; format: cell-based; conditions: for IC50: Homo sapiens; for Activity: human
RAW264.7 [5] = test: Cytotoxicity against mouse RAW264.7 cells by MTT assay; format: cell-based
LNCaP = test: Cytotoxicity against human LNCAP cells after 48 hrs by SRB assay; format: functional, cell-based
MCF7 [6] = test: Cytotoxicity against human MCF7 cells after 48 hrs by SRB assay; format: functional, cell-based; conditions: MCF7, 48 h
C32 = test: Cytotoxicity against human C32 cells after 48 hrs by SRB assay; format: functional, cell-based; conditions: for IC50: C32, 48 h
A549 = test: Cytotoxicity against human A549 cells after 48 hrs by SRB assay; format: functional, cell-based; conditions: A549, 48 h
HL-60 = test: Cytotoxicity against human HL60 cells; format: functional, cell-based
MCF7 [7] = test: Cytotoxicity against human MCF7 cells; format: functional, cell-based
HT-29 = test: Cytotoxicity against human HT-29 cells; format: functional, cell-based
SK-OV-3 = test: Cytotoxicity against human SKOV3 cells; format: functional, cell-based

Compound | Activity (RAW264.7 [1]) | IC50 [3] [µM] | Activity (Caco-2) | IC50 (Caco-2) [µM] | IC50 (RAW264.7 [1]) [µM] | Activity (COR-L23) | IC50 (COR-L23) [µM] | IC50 [2] | Activity (A-375) | IC50 (A-375) [µM] | Activity (ACHN) | IC50 (ACHN) [µM] | IC50 [4] [µM] | Activity [4] | IC50 (RAW264.7 [5]) [µM] | IC50 (LNCaP) [µM] | IC50 (MCF7 [6]) [µM] | Activity (C32) | IC50 (C32) [µM] | IC50 (A549) [µM] | other results
COc1ccc2c(c1)c(CC(=O)O)c(C)n2C(=O)c1ccc(Cl)cc1 | Dose-dependent effect |  |  |  |  |  |  |  |  |  |  |  |  |  |  |  |  |  |  |  | 
O=C1O[C@H]([C@@H](O)CO)C(O)=C1O [ASCORBIC ACID] |  |  |  |  |  |  |  |  |  |  |  |  |  |  |  |  |  |  |  |  | IC50 ([2]; read-out: IC50): 0.002 µM
C[C@H]1O[C@@H](O[C@H]2CC[C@@]3(C)[C@@H](CC[C@]4(C)[C@@H]3C=C[C@]35OC[C@@]6(CCC(C)(C)C[C@H]63)[C@@H](O)C[C@]54C)[C@]2(C)CO)[C@H](O[C@@H]2O[C@H](CO)[C@@H](O)[C@H](O)[C@H]2O)[C@@H](O[C@@H]2O[C@H](CO)[C@@H](O)[C@H](O)[C@H]2O)[C@H]1O [BUDDLEJASAPONIN IV] | Dose-dependent effect | > 50 | Dose-dependent effect | 40.7 | 4.2 | Dose-dependent effect | 0.4 | Not Active | Dose-dependent effect | 14.6 | Dose-dependent effect | 7.9 | > 50 | Dose-dependent effect | 10.6 | > 50 | > 50 | Dose-dependent effect | 26.9 | 38.3 | 
CC1(C)C[C@@H]2C3=CC[C@@H]4[C@@]5(C)CC[C@H](O[C@H]6OC[C@H](O)[C@H](O[C@@H]7O[C@H](CO)[C@@H](O)[C@H](O)[C@H]7O)[C@H]6O)C(C)(C)[C@@H]5CC[C@@]4(C)[C@]3(C)C[C@H](O)[C@@]2(CO)[C@H](OC(=O)c2ccccc2)C1 [GLOCHIERIOSIDE A] |  |  |  |  |  |  |  |  |  |  |  |  |  |  |  |  |  |  |  |  | IC50 (HL-60): 5.5 µM; IC50 (MCF7 [7]): 29.1 µM; IC50 (HT-29): 6.8 µM; IC50 (SK-OV-3): 22.7 µM
CC1(C)C[C@@H]2C3=CC[C@@H]4[C@@]5(C)CC[C@H](O[C@@H]6OC[C@@H](O)[C@H](O[C@@H]7O[C@H](CO)[C@@H](O)[C@H](O)[C@H]7O)[C@H]6O)C(C)(C)[C@@H]5CC[C@@]4(C)[C@]3(C)C[C@H](O)[C@@]2(CO)[C@H](OC(=O)c2ccccc2)C1 [GLOCHIERIOSIDE B] |  |  |  |  |  |  |  |  |  |  |  |  |  |  |  |  |  |  |  |  | IC50 (HL-60): 6.6 µM; IC50 (MCF7 [7]): 36.1 µM; IC50 (HT-29): 18.6 µM; IC50 (SK-OV-3): 16 µM
CC(=O)O[C@H]1C(=O)[C@@]2(C)[C@H]([C@H](OC(=O)c3ccccc3)[C@]3(O)C[C@H](OC(=O)[C@H](O)[C@@H](NC(=O)c4ccccc4)c4ccccc4)C(C)=C1C3(C)C)[C@]1(OC(C)=O)CO[C@@H]1C[C@@H]2O [PACLITAXEL] |  |  | Dose-dependent effect |  |  | Dose-dependent effect |  |  | Dose-dependent effect |  | Dose-dependent effect |  |  | Dose-dependent effect |  |  | 0.08 | Dose-dependent effect |  |  | 
C[C@H]1O[C@@H](O[C@H]2CC[C@@]3(C)[C@@H](CC[C@]4(C)[C@@H]3C=C[C@]35OC[C@@]6(CCC(C)(C)C[C@H]63)[C@@H](O)C[C@]54C)[C@]2(C)CO)[C@H](O)[C@@H](O[C@@H]2O[C@H](CO)[C@@H](O)[C@H](O)[C@H]2O)[C@H]1O [SAIKOSAPONIN A] | Dose-dependent effect | > 50 | Dose-dependent effect | 17.9 | 102 | Dose-dependent effect | 0.6 | Not Active | Dose-dependent effect | 23.9 | Dose-dependent effect | > 50 | > 50 | Dose-dependent effect | > 200 | > 50 | > 50 | Dose-dependent effect | 43.5 | 17.7 | 
C[C@H]1O[C@@H](O[C@H]2CC[C@@]3(C)[C@@H](CC[C@]4(C)[C@@H]3C=C[C@]35OC[C@@]6(CCC(C)(C)C[C@H]63)[C@@H](O)C[C@]54C)[C@]2(C)CO)[C@H](O)[C@@H](O[C@@H]2O[C@H](CO)[C@@H](O)[C@H](O[C@@H]3O[C@H](CO)[C@@H](O)[C@H](O)[C@H]3O[C@@H]3O[C@H](CO)[C@@H](O)[C@H](O)[C@H]3O)[C@H]2O)[C@H]1O [SONGAROSAPONIN D] | Dose-dependent effect | > 50 | Dose-dependent effect | 16.7 | 10.4 | Dose-dependent effect | 0.4 | Not Active | Dose-dependent effect | 12.4 | Dose-dependent effect | 37.2 | > 50 | Dose-dependent effect | 56.1 | > 50 | > 50 | Dose-dependent effect | 14 | 41.1 | 
CC[C@]1(O)C[C@@H]2CN(CCc3c([nH]c4ccccc34)[C@@](C(=O)OC)(c3cc4c(cc3OC)N(C)[C@H]3[C@@](O)(C(=O)OC)[C@H](OC(C)=O)[C@]5(CC)C=CCN6CC[C@]43[C@@H]65)C2)C1.O=S(=O)(O)O [VINBLASTINE SULFATE] |  | 45.6 | Dose-dependent effect | 69 |  | Dose-dependent effect | 45.5 |  | Dose-dependent effect | 7.2 | Dose-dependent effect | 22.7 | 37.6 | Dose-dependent effect |  | 29.3 |  | Dose-dependent effect | 3 |  | 
